Test [1] deals with T1, Protein deacetylase HDAC6 (Homo sapiens) (UniProt Q9UBN7).
T1 sequence (whole entry): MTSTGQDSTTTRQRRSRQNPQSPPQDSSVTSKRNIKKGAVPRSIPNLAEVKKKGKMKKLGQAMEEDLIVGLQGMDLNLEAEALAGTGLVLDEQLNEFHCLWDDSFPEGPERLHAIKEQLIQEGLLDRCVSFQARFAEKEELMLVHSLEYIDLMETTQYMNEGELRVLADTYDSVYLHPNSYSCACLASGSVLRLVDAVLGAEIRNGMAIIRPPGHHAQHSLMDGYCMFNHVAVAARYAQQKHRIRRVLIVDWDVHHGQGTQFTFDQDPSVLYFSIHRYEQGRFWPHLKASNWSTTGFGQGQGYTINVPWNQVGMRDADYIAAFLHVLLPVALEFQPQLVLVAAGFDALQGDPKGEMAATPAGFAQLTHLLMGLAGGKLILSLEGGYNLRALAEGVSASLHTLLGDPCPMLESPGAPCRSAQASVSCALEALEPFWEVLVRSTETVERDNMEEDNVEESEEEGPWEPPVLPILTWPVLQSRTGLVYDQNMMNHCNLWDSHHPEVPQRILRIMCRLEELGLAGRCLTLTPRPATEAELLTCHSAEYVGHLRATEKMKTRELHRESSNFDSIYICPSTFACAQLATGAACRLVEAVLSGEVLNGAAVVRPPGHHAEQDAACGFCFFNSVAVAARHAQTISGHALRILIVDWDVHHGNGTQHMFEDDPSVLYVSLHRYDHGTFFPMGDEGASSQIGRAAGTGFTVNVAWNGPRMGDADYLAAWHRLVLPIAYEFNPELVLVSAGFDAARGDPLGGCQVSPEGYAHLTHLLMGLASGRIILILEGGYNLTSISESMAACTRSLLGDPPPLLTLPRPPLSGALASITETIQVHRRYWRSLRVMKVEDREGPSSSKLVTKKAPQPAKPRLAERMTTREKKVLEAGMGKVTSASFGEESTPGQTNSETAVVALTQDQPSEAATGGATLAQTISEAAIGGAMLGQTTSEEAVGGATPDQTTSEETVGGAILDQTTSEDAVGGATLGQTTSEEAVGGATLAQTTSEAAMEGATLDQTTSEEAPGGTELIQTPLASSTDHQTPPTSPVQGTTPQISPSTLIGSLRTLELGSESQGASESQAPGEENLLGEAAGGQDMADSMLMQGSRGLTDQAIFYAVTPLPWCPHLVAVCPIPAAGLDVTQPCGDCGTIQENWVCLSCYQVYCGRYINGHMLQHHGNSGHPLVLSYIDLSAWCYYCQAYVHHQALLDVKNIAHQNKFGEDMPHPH
Nature of the test: Inhibition of HDAC6 in human NCI-H1975 cells assessed as increase in acetylation of alpha tubulin at 1 uM incubated for 24 hrs by western blot analysis. The class given is cell-based.

The target in test [2] is Heat shock protein HSP 90-alpha (Homo sapiens, UniProt P07900). Nature of the test: Inhibition of His-tagged N-terminal recombinant HSP90alpha (unknown origin) expressed in Escherichia coli BL21 (DE3) incubated for 4 hrs by fluorescence polarization based microplate reader assay.
A further test relates to NCI-H1975. In words: Antiproliferative activity against human NCI-H1975 cells assessed as growth inhibition incubated upto 72 hrs by CellTiter96 Aqueous One Solution Cell Proliferation assay. The class given is functional.
Test [3] addresses T2, Heat shock protein HSP90 (Homo sapiens) (UniProt P07900+P08238). Nature of the test: Inhibition of HSP90 in human NCI-H1975 cells assessed as downregulation of Akt expression at 2 uM incubated for 24 hrs by western blot analysis. Format: cell-based.
The target in test [4] is T1, Protein deacetylase HDAC6 (Homo sapiens). Nature of the test: Inhibition of HDAC6 in human NCI-H1975 cells assessed as increase in acetylation of HSP90-Lys 294 residue at 2 uM incubated for 24 hrs by western blot analysis. Format: cell-based.
Test [5] addresses T2, Heat shock protein HSP90 (Homo sapiens). Nature of the test: Inhibition of HSP90 in human NCI-H1975 cells assessed as downregulation of EGFR expression at 2 uM incubated for 24 hrs by western blot analysis. Format: cell-based.
Test [6] shares this target. In words: Inhibition of HSP90 in human NCI-H1975 cells assessed as downregulation of Her2 expression at 2 uM incubated for 24 hrs by western blot analysis. Format: cell-based.
The target is the same in test [7]. Nature of the test: Inhibition of HSP90 in human NCI-H1975 cells assessed as upregulation of HSP70 expression at 2 uM incubated for 24 hrs by western blot analysis. The class given is cell-based.
Test [8] shares this target. Nature of the test: Inhibition of HSP90 in human NCI-H1975 cells assessed as downregulation of Met expression at 2 uM incubated for 24 hrs by western blot analysis. The class given is cell-based.

Active and inactive are the calls of the source. No cut-off for these calls is given here.

As to `COC1=C2C[C@@H](C)C[C@H](OC)[C@H](O)[C@@H](C)/C=C(\C)[C@H](OC(N)=O)[C@@H](OC)/C=C\C=C(/C)C(=O)NC(=CC1=O)C2=O`, in test [1], the inhibition entry is “Active”.

In the case of `CCCN(Cc1ccc(C(=O)NO)cc1)C(=O)c1cc(C(C)C)c(O)cc1O`, the IC50 in [2] is 0.648 µM. The GI50 in the test on NCI-H1975 is 23.7 µM.

As for `COC(=O)c1ccc(CN(C)C(=O)c2cc(C(C)C)c(O)cc2O)cc1`, the inhibition result in test [3], in test [4], in test [5], in test [6], in test [7] and in test [8] was “Active” throughout. Moreover, the 50% growth inhibitory concentration (GI50) with NCI-H1975 worked out at 3.5 µM.

For the compound `CN(Cc1ccc(C(=O)NO)cc1)C(=O)c1ccccc1`, in test [2], the IC50 was > 1 µM. Moreover, the GI50 in the test with NCI-H1975 is 8.2 µM.

`CCN(Cc1ccc(C(=O)NO)cc1)C(=O)c1cc(Cl)c(O)cc1O`: in [2], the IC50 was 0.693 µM. In addition, in the test on NCI-H1975, the GI50 is 13.2 µM.

For the compound `CN(Cc1ccc(C(=O)NO)cc1)C(=O)c1cc(Cl)c(O)cc1O`, the IC50 in test [2] came out at 0.608 µM. In the test with NCI-H1975, the GI50 stood at 68.8 µM.

Take `CCCCN(Cc1ccc(C(=O)NO)cc1)C(=O)c1cc(Cl)c(O)cc1O`: the IC50 in test [2] was found to be 0.632 µM. Moreover, the concentration for 50% growth inhibition (GI50) with NCI-H1975 turned out to be 66.4 µM.

On to `CCN(Cc1ccc(C(=O)NO)cc1)C(=O)c1cc(C(C)C)c(O)cc1O`, for which the half-maximal inhibitory concentration (IC50) in [2] was determined as 0.22 µM. Moreover, the GI50 with NCI-H1975 was 7 µM.

Take `CCCN(Cc1ccc(C(=O)NO)cc1)C(=O)c1cc(Cl)c(O)cc1O`: the IC50 in test [2] was > 1 µM. Also, the GI50 in the test on NCI-H1975 came out at 73.6 µM.

Regarding `CC(C)c1cc(C(=O)N(C)Cc2ccc(C(=O)O)cc2)c(O)cc1O`, the GI50 in the test on NCI-H1975 came out at 30 µM.

On to `CCCCN(Cc1ccc(C(=O)NO)cc1)C(=O)c1cc(C(C)C)c(O)cc1O`, for which the IC50 in test [2] was found to be 0.367 µM. In addition, the GI50 in the test with NCI-H1975 is 23.6 µM.

These data come from ChEMBL document CHEMBL5113492, “Design, synthesis, and biological evalution of bifunctional inhibitors against Hsp90-HDAC6 interplay” (Eur J Med Chem, 2022).
